Assay results taken from patent publication US20250304559A1, “Ether-Linked Antiviral Compounds” (Pfizer Inc., priority 2021, published 2025).
pEC50, pKi: −log10 of the molar value. Where a name gives a salt, the structure may show the parent alone. Read-outs that look alike come from different tables or passages of the source.

Columns and labels:
SARS-CoV-2 3CL protease = molecular target: T1, SARS-CoV-2 3CL protease (Severe acute respiratory syndrome coronavirus 2, UniProt P0DTD1); assay: SARS-CoV-2 Coronavirus 3C Protease FRET Assay; type: biochemical; conditions: Morrison equation fit, 15 nM enzyme, 25 μM peptide substrate; for Ki: Examples 14-78 and 114 (second head of Table 2), read-out: Geometric Mean Ki (nM) IC50; for pKi: Examples 1-13, 60 minutes at 23° C., read-out: Geometric Mean Ki
T1 construct: measures the activity of full-length SARS-CoV-2 3CL protease

[1] = system: SARS-CoV-2 (USA_WA1/2020); assay: Antiviral Activity from SARS-CoV-2 Infection (cytopathic effect, Cell Titer-Glo); type: cell-based; conditions: Severe acute respiratory syndrome coronavirus 2, Vero C1008, 72 h, VeroE6 cells enriched for hACE2, MOI 0.002, 3-day incubation; tested alone or with P-gp inhibitor CP-100356 2 μM (table does not say which); read-out: Geometric Mean EC50

CCC(C(NC(=O)C(F)(F)F)C(=O)N1C[C@H]2[C@@H]([C@H]1C(=O)N[C@@H](C[C@@H]1CCNC1=O)C(=O)COc1ccc(F)cc1F)C2(C)C)C(F)(F)F (stereo in doubt) [Example 32, (1R,2S,5S)-N-{(2S)-4-(2,4-difluorophenoxy)-3-oxo-1-[(3S)-2-oxopyrrolidin-3-yl]butan-2-yl}-6,6-dimethyl-3-[3′,3′,3′-trifluoro-N-(trifluoroacetyl)-L-isoleucyl]-3-azabicyclo[3.1.0]hexane-2-carboxamide]
Ki (SARS-CoV-2 3CL protease): 2.42 nM | pEC50 [1]: 7.00

COCC(=O)[C@H](C[C@@H]1CCNC1=O)NC(=O)C1C[C@H](C(C)(C)C)CCN1C(=O)[C@@H](NS(=O)(=O)C(F)(F)F)C(C)C (single isomer, unassigned) [Example 77, (2R*,4S*)-4-tert-butyl-N-{(2S)-4-methoxy-3-oxo-1-[(3S)-2-oxopyrrolidin-3-yl]butan-2-yl}-1-[N-(trifluoromethanesulfonyl)-L-valyl]piperidine-2-carboxamide, DIAST-2]
Ki (SARS-CoV-2 3CL protease): > 10800 nM | pEC50 [1]: < 4.00

CC(C)[C@H](NC(=O)C(F)(F)F)C(=O)N1C[C@H]2[C@@H]([C@H]1C(=O)N[C@@H](C[C@@H]1CCNC1=O)C(=O)COc1nc(C(F)(F)F)nn1C)C2(C)C [Example 55, (1R,2S,5S)-6,6-dimethyl-N-{(2S)-4-{[1-methyl-3-(trifluoromethyl)-1H-1,2,4-triazol-5-yl]oxy}-3-oxo-1-[(3S)-2-oxopyrrolidin-3-yl]butan-2-yl}-3-[N-(trifluoroacetyl)-L-valyl]-3-azabicyclo[3.1.0]hexane-2-carboxamide]
Ki (SARS-CoV-2 3CL protease): 11.6 nM | pEC50 [1]: 6.19

Cc1noc(OCC(=O)[C@H](C[C@@H]2CCNC2=O)NC(=O)[C@@H]2[C@@H]3[C@H](CN2C(=O)[C@@H](NC(=O)C(F)(F)F)C(C)C)C3(C)C)n1 [Example 76, (1R,2S,5S)-6,6-dimethyl-N-{(2S)-4-[(3-methyl-1,2,4-oxadiazol-5-yl)oxy]-3-oxo-1-[(3S)-2-oxopyrrolidin-3-yl]butan-2-yl}-3-[N-(trifluoroacetyl)-L-valyl]-3-azabicyclo[3.1.0]hexane-2-carboxamide]
Ki (SARS-CoV-2 3CL protease): 3840 nM | pEC50 [1]: < 4.00

CC(C)[C@H](NC(=O)C(F)(F)F)C(=O)N1C[C@H]2[C@@H]([C@H]1C(=O)N[C@@H](C[C@@H]1CCNC1=O)C(=O)COc1cc(C(F)(F)F)nn1C)C2(C)C [Example 9, (1R,2S,5S)-6,6-dimethyl-N-{(2S)-4-{[1-methyl-3-(trifluoromethyl)-1H-pyrazol-5-yl]oxy}-3-oxo-1-[(3S)-2-oxopyrrolidin-3-yl]butan-2-yl}-3-[N-(trifluoroacetyl)-L-valyl]-3-azabicyclo[3.1.0]hexane-2-carboxamide, trifluoroacetate salt]
pKi (SARS-CoV-2 3CL protease): 7.37 | pEC50 [1]: 6.58

CC(C)[C@H](NS(C)(=O)=O)C(=O)N1CCC(C)(C)CC1C(=O)N[C@@H](C[C@@H]1CCNC1=O)C(=O)COc1ccc(F)cc1F (single isomer, unassigned) [Example 60, (2R*)-N-{(2S)-4-(2,4-difluorophenoxy)-3-oxo-1-[(3S)-2-oxopyrrolidin-3-yl]butan-2-yl}-1-[N-(methanesulfonyl)-L-valyl]-4,4-dimethylpiperidine-2-carboxamide]
Ki (SARS-CoV-2 3CL protease): 21.8 nM | pEC50 [1]: 6.34

CC(C)[C@H](NC(=O)C(F)(F)F)C(=O)N1C[C@H]2[C@@H]([C@H]1C(=O)N[C@@H](C[C@@H]1CCNC1=O)C(=O)COc1ccc(F)cc1F)C2(C)C [Example 1, (1R,2S,5S)-N-{(2S)-4-(2,4-difluorophenoxy)-3-oxo-1-[(3S)-2-oxopyrrolidin-3-yl]butan-2-yl}-6,6-dimethyl-3-[N-(trifluoroacetyl)-L-valyl]-3-azabicyclo[3.1.0]hexane-2-carboxamide]
pKi (SARS-CoV-2 3CL protease): 8.69 | pEC50 [1]: 7.57
